Experimental data reported in ChEMBL document CHEMBL1201862, “PubChem BioAssay data set” (2004).
Calls of active or inactive are those of the source.

Experiments:
Wee1-like protein kinase = Wee1-like protein kinase (Homo sapiens, UniProt P30291); experiment: Navigating the Kinome. Panel member name: WEE1; assay type: functional
[1] = target: ALK tyrosine kinase receptor (Homo sapiens, UniProt Q9UM73); assay type: functional;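 note: ALK tested as one member of a kinase panel screen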
[2] = A High Throughput Confirmatory Assay used to Identify Novel Compounds that Inhibit Mycobacterium Tuberculosis in the absence of Glycerol using Purified and Synthesized Compounds (3).; assay type: functional
Hexokinase HKDC1 = target: T1, Hexokinase HKDC1 (Homo sapiens, UniProt Q2TB90); experiment: HKDC1 hexokinase activators, dose response, biochemical, W721R variant (AID 504730); assay type: functional
T1 sequence (Q2TB90 whole entry): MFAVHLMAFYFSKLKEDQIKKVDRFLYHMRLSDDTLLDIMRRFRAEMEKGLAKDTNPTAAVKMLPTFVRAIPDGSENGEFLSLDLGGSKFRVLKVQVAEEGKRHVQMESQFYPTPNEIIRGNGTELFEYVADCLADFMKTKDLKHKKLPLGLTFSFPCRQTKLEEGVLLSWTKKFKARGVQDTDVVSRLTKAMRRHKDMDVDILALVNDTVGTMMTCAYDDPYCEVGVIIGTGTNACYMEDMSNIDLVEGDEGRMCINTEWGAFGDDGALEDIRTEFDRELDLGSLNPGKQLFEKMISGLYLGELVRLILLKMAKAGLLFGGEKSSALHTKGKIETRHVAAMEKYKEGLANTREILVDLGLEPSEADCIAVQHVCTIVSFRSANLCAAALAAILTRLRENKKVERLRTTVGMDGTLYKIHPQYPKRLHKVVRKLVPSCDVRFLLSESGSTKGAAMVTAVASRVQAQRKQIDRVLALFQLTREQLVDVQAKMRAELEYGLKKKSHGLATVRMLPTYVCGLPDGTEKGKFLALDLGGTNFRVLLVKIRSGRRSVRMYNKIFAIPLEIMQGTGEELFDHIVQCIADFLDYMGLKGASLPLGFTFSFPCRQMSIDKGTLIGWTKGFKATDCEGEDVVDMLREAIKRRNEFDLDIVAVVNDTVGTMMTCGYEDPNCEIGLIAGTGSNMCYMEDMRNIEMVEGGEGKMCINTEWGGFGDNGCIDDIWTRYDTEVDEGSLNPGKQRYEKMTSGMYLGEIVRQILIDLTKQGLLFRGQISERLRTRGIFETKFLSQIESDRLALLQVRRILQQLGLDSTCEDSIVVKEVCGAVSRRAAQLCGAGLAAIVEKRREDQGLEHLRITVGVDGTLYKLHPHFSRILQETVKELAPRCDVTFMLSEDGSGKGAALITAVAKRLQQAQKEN

[3] = target: Latent membrane protein 1 (Human herpesvirus 4 (strain B95-8), UniProt P03230); experiment: TES1-eGFP NF-kB reporter inhibition versus Tet-On dsRED, dose response, selectivity assay for LMP1 NF-kB inhibitor project, imaging, HEK293T, dual-color eGFP/dsRED, cherry-picks (AID 588398); assay type: functional, cell-based
Sequence of Latent membrane protein 1 (P03230 whole entry): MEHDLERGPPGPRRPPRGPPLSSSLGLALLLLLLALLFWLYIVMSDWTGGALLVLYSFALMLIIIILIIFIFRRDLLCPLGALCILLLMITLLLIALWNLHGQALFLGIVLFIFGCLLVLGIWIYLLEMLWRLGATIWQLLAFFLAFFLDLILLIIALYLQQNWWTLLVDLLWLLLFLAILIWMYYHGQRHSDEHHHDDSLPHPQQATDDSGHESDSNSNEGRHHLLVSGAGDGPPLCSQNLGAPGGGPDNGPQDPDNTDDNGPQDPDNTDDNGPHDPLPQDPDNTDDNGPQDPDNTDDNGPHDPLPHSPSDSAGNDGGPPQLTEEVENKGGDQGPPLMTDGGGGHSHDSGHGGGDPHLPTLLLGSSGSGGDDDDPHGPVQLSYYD

Nonstructural protein 1 = Nonstructural protein 1 (Influenza A virus, UniProt Q194T2); assay type: functional, Influenza A virus (A/California/07/2009(H1N1))
Sequence of Nonstructural protein 1 (Q194T2 whole entry): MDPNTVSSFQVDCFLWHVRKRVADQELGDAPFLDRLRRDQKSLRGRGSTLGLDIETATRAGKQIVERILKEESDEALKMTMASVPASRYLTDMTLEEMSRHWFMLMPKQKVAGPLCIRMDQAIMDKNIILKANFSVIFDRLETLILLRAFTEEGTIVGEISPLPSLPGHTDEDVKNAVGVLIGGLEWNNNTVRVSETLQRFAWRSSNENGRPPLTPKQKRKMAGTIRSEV

Hexokinase-1 = Hexokinase-1 (Homo sapiens, UniProt P19367); experiment: hexokinase 1 activators, dose response, selectivity assay for HKDC1 activator project, biochemical (AID 504762); assay type: functional
HEK293 [4] = experiment: SAR Analysis of small molecule inhibitors of both B-cell and T-cell specific antigen receptor-induced NF-kB activation in a HEK-293T cell line using a luminescence assay. [Related pubchem assays (depositor defined):AID435003, AID435022, AID465, AID489019, AID489029]; assay type: functional, cell-based; settings: Homo sapiens
HEK293 [5] = experiment: cytotoxicity in HEK293T NF-kB-Luc cells, SAR follow-up, cytotoxicity control for NF-kB activator project, cell-based, resazurin fluorescence (AID 493251); assay type: functional; settings: Homo sapiens
Jurkat = experiment: SAR Analysis of small molecule inhibitors of both B-cell and T-cell specific antigen receptor-induced NF-kB activation in a Jurkat cell line using a luminescence assay. [Related pubchem assays (depositor defined):AID435003, AID435022, AID465, AID489029]; assay type: functional, cell-based; settings: Homo sapiens
[6] = target: T2, Sentrin-specific protease 7 (Homo sapiens, UniProt Q9BQF6); experiment: SENP7 protease inhibitors, SAR follow-up, biochemical, luminescence, set 2 (AID 588600); assay type: functional
T2 sequence (Q9BQF6 whole entry): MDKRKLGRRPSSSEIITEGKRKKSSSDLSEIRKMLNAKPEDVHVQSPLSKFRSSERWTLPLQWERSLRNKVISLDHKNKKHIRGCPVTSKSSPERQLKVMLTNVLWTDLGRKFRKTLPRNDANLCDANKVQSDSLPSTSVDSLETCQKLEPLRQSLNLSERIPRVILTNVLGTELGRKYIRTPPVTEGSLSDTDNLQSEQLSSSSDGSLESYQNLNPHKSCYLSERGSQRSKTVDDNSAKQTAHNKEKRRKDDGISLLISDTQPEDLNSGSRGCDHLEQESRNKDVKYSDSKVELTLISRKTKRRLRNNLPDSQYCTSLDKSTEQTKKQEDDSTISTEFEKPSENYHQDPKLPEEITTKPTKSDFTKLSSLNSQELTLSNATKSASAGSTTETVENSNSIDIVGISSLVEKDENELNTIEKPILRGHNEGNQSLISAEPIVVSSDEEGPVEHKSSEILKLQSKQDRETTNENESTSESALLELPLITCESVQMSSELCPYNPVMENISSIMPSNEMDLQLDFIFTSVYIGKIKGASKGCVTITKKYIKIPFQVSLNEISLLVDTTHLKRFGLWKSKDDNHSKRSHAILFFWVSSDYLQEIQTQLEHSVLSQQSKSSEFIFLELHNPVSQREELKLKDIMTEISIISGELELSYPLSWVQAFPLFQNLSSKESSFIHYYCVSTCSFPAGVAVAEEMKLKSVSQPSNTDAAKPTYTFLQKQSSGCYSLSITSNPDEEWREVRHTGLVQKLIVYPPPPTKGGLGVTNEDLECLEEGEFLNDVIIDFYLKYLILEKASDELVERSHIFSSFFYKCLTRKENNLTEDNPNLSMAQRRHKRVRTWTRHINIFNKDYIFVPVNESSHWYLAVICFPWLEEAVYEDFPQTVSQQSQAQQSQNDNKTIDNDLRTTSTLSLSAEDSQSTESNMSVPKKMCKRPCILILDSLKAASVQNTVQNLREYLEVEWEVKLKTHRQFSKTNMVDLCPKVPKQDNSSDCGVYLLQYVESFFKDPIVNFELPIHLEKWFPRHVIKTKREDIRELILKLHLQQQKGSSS

Caspase-3 = target: T3, Caspase-3 (Homo sapiens, UniProt P42574); experiment: caspase-3 inhibitors as off-family protease, SAR follow-up, selectivity assay for SENP protease inhibitor project, biochemical, luminescence, set 2 (AID 588599); assay type: functional
T3 sequence (P42574 whole entry): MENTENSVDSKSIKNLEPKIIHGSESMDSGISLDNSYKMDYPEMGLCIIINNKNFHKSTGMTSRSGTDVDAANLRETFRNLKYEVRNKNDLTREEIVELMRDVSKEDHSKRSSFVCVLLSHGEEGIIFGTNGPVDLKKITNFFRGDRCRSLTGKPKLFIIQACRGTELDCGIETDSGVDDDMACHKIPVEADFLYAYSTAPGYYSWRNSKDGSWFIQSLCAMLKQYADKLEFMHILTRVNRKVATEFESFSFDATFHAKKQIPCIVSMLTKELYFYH

[7] = target: T4, Sentrin-specific protease 8 (Homo sapiens, UniProt Q96LD8); experiment: SENP8 protease inhibitors, SAR follow-up, biochemical, luminescence, set 2 (AID 588601); assay type: functional
T4 sequence (Q96LD8 whole entry): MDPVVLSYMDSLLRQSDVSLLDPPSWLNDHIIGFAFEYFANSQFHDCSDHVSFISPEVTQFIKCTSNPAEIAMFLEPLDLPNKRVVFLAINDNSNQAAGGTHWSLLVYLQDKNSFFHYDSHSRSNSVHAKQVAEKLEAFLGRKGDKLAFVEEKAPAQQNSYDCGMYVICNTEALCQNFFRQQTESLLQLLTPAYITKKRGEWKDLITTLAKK

[8] = target: T5, Sentrin-specific protease 6 (Homo sapiens, UniProt Q9GZR1); experiment: SENP6 protease inhibitors, SAR follow-up, biochemical, luminescence, set 2 (AID 588598); assay type: functional
T5 sequence (Q9GZR1 whole entry): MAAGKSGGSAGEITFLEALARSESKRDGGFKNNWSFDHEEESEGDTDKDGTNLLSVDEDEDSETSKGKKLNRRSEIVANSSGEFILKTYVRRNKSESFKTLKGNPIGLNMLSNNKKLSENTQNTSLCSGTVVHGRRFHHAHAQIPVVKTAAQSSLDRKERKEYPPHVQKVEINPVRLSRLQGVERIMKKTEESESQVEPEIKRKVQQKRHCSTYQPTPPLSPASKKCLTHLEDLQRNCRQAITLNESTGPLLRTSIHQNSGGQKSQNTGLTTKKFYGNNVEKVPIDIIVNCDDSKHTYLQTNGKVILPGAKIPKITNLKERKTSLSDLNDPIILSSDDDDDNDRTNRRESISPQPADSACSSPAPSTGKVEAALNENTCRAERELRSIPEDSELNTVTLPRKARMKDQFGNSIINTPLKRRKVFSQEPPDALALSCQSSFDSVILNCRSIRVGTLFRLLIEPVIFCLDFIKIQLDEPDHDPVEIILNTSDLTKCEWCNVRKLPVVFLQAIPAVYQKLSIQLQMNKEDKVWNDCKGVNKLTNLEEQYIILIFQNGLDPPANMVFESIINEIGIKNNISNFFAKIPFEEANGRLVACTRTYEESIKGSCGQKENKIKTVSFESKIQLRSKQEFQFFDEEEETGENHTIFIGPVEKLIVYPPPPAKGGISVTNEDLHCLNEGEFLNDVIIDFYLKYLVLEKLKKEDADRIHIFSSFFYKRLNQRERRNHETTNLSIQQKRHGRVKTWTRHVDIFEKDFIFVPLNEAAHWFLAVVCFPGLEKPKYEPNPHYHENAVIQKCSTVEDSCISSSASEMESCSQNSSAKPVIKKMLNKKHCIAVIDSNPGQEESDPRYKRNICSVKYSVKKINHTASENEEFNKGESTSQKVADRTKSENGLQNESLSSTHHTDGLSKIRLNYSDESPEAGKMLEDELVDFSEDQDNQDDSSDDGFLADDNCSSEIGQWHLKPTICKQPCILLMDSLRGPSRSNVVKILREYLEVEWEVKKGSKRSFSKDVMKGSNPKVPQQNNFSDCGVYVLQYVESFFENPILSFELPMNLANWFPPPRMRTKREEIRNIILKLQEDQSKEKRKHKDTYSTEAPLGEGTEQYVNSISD

[9] = target: Melanin-concentrating hormone receptor 1 (Homo sapiens, UniProt Q99705); experiment: Late-stage fluorescence-based counterscreen for antagonists of the G-protein coupled receptor 7 (GPR7): cell-based dose response assay to identify antagonists of the melanin-concentrating hormone receptor 1 (MCHR1) Set 5.; assay type: functional
Sequence of Melanin-concentrating hormone receptor 1 (Q99705 whole entry): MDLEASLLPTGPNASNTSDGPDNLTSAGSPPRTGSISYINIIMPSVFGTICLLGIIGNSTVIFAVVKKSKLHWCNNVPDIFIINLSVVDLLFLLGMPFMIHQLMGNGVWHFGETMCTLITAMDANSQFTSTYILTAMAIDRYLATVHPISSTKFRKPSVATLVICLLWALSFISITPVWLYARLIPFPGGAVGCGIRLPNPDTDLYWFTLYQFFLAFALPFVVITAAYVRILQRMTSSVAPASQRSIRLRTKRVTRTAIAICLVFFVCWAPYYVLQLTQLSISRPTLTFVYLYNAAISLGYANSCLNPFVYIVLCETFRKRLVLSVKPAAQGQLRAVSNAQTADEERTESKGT

[10] = target: Proto-oncogene tyrosine-protein kinase receptor Ret (Homo sapiens, UniProt P07949); assay type: functional;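 note: measured within a kinome-wide profiling panel, RET as the panel member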
[11] = target: Mitogen-activated protein kinase 9 (Homo sapiens, UniProt P45984); assay type: functional;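 note: value from a kinome panel profiling assay, MAPK9 panel entry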
[12] = target: Calcium/calmodulin-dependent protein kinase type II subunit alpha (Homo sapiens, UniProt Q9UQM7); experiment: Navigating the Kinome. Panel member name: CAMK2A; assay type: functional
Sequence of Calcium/calmodulin-dependent protein kinase type II subunit alpha (Q9UQM7 whole entry): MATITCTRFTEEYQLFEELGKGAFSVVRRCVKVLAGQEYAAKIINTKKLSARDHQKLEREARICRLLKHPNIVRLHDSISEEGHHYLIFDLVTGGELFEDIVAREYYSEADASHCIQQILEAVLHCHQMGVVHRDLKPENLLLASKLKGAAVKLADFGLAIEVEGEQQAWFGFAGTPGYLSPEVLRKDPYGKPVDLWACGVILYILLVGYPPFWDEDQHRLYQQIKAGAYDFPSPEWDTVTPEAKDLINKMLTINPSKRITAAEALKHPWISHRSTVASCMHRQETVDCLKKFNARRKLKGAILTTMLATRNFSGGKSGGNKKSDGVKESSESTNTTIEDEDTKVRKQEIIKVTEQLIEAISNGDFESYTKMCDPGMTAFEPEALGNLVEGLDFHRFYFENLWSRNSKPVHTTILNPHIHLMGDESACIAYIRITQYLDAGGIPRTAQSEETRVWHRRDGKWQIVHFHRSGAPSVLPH

[13] = target: Serine/threonine-protein kinase D3 (Homo sapiens, UniProt O94806); assay type: functional;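 note: determined within a kinase panel screen, with PRKCN as the panel member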
[14] = target: Platelet-derived growth factor receptor alpha (Homo sapiens, UniProt P16234); experiment: Navigating the Kinome. Panel member name: PDGFRA; assay type: functional
[15] = target: Serine/threonine-protein kinase pim-1 (Homo sapiens, UniProt P11309); assay type: functional
[16] = target: Calcium/calmodulin-dependent protein kinase type II subunit beta (Homo sapiens, UniProt Q13554); assay type: functional
[17] = target: Protein kinase C gamma type (Homo sapiens, UniProt P05129); assay type: functional
[18] = target: MAP kinase-activated protein kinase 3 (Homo sapiens, UniProt Q16644); assay type: functional;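 note: value comes from a kinome-wide profiling panel in which MAPKAPK3 is one of the panel members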
Sequence of MAP kinase-activated protein kinase 3 (Q16644 whole entry): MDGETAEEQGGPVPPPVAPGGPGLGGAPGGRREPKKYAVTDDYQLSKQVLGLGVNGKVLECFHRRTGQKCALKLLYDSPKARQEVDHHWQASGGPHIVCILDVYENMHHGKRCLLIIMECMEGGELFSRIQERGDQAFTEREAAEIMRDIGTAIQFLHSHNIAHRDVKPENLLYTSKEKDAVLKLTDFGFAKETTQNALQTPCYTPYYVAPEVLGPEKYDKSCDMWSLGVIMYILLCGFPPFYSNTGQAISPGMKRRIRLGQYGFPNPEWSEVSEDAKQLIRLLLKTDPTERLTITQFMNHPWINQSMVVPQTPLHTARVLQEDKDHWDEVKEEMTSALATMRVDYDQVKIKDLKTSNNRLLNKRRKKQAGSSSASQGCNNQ

[19] = target: Protein kinase C zeta type (Homo sapiens, UniProt Q05513); assay type: functional;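 note: measured as one member of a broad kinase profiling panel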
[20] = target: G protein-coupled receptor kinase 5 (Homo sapiens, UniProt P34947); experiment: Navigating the Kinome. Panel member name: GPRK5; assay type: functional

Sequence of Wee1-like protein kinase (P30291 whole entry): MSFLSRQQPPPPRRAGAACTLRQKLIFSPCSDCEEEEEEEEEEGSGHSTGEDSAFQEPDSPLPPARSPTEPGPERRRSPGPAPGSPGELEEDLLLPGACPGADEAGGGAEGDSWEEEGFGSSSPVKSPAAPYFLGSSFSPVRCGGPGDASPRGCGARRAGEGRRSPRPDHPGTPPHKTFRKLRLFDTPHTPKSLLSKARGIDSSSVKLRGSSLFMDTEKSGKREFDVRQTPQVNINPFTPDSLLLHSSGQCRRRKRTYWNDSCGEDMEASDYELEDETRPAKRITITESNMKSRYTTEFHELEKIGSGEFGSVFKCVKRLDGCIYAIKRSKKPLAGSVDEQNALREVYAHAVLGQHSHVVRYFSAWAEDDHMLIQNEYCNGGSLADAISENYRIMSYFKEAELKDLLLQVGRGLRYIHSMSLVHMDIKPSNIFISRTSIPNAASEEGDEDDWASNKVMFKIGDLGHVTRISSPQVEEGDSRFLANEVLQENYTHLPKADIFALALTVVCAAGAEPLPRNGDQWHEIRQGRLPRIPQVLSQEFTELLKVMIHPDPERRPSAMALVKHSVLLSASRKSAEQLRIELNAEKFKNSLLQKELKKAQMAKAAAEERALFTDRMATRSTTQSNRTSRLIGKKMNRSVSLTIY
Sequence of ALK tyrosine kinase receptor (Q9UM73 whole entry): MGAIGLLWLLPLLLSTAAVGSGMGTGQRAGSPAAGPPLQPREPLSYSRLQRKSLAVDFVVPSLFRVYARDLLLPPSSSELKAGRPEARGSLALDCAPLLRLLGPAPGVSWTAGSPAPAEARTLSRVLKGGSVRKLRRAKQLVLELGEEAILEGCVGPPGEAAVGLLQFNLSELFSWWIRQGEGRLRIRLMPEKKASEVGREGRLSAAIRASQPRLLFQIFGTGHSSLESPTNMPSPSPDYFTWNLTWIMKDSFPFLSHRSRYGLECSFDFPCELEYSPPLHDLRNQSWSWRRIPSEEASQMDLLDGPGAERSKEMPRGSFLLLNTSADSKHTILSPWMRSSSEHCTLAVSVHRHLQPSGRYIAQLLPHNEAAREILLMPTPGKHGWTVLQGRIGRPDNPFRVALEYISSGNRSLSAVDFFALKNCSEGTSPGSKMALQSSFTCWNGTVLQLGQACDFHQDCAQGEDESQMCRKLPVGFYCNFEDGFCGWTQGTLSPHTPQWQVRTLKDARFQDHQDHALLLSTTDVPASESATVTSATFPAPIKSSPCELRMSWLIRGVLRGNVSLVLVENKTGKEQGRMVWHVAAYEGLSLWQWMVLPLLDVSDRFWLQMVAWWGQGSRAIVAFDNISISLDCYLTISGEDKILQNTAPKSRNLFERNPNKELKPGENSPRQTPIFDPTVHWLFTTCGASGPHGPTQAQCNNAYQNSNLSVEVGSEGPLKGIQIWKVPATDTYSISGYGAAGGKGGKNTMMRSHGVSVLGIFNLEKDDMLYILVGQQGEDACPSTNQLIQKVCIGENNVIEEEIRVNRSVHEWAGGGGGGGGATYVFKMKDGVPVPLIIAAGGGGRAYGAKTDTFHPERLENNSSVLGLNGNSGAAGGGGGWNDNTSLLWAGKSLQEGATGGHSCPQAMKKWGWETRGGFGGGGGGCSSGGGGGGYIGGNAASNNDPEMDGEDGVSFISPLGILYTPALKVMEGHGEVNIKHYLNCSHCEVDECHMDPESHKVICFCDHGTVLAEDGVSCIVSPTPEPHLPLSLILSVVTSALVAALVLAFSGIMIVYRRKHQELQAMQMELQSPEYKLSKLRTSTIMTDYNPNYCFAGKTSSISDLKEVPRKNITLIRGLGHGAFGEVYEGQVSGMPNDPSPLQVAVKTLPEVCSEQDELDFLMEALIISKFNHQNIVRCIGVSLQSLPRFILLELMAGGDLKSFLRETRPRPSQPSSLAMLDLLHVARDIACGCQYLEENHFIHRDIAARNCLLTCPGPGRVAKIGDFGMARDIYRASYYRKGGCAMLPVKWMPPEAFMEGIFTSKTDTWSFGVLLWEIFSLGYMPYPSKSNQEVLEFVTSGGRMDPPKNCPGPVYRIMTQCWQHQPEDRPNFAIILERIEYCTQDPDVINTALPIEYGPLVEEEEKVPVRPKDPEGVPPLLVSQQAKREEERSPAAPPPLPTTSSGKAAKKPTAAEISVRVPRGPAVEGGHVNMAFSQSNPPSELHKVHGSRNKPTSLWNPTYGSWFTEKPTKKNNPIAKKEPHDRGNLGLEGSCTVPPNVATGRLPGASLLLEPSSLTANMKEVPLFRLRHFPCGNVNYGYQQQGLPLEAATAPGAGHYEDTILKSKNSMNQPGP

With `CCNc1nc(C)c(-c2ccnc(Nc3ccc(N4CCNCC4)cc3)n2)s1` the Ki (Wee1-like protein kinase) was 0.0794 µM (active) and the Ki [1] was 0.2 µM (active).
With `CCOc1ccc(NC(=O)CSc2nc(O)c(C)c(=O)n2-c2ccc(F)cc2)cc1` the IC50 [2] was > 25 µM (active).
With `COc1ccccc1NC(=S)NN=C(C)c1ccccn1` the EC50 (Hexokinase HKDC1) was 3.03 µM (active), the AC50 [3] was 0.638 µM (active) and the IC50 (Nonstructural protein 1) was 25.8 µM (active). For the same molecule, the EC50 (Hexokinase-1) was > 80 µM (inactive).
In the case of `COc1cc(N)c2ncccc2c1`, the IC50 (HEK293 [4]) is reported as > 79 µM (inactive), the IC50 (HEK293 [5]) is reported as 43.1 µM (inactive) and the IC50 (Jurkat) is reported as 76.2 µM (inactive).
For `Cc1[nH]c2ccccc2c1/C=N/NC(=O)c1cc2ccccc2cc1O`, the IC50 [6] was 95.7 µM (active), the IC50 (Caspase-3) was > 99 µM (inactive) and the IC50 [7] was 79.4 µM (active). For the same molecule, the IC50 [8] was 83.4 µM (active).
For `COc1ccc(Oc2c(Cl)cnn(Cc3cccc4ccccc34)c2=O)cc1OC`, the IC50 [9] was 1.44 µM (active).
For `CCN(CCN(C)C)C(=O)c1cccc(-n2nc(C(C)(C)C)cc2NC(=O)Nc2cccc3ccccc23)c1`, the Ki [10] was 1.58 µM (active), the Ki [11] was 3.16 µM (active) and the Ki [12] was > 7.94 µM (inactive). For the same molecule, the Ki [13] was 3.16 µM (active) and the Ki [14] was 1.26 µM (active).
With `CNCCONC(=O)c1ccc(F)c(F)c1Nc1ccc(I)cc1F` the Ki [15] was 2 µM (active) and the Ki [16] was 7.94 µM (active).
With `O=c1ncn2nc(Sc3ccc(F)cc3F)ccc2c1-c1c(Cl)cccc1Cl` [NEFLAMAPIMOD] the Ki [17] was > 7.94 µM (inactive), the Ki [18] was > 10 µM (inactive) and the Ki [19] was > 7.94 µM (inactive). The Ki [20] was > 3.98 µM (inactive).
